US6541196B2, “Method for cAMP production” (Jackson State University, priority 2000, dated 2003)

Key:
HFMc = experiment: cAMP accumulation in human fetal mesangial cells (extracellular cAMP, competitive 3H-cAMP binding kit); assay type: cell-based; settings: 10 min; for cAMP accumulation compared with control cells: confluent serum-starved HFMc, Ang II 1 μM, bFGF 20 ng/ml, p<0.05
Experimental: The culture medium was aspirated from HFMc monolayers, and the cells were washed three times with PBS. Cell monolayers were then overlaid with PBS at room temperature on 100 mm culture dishes. A cAMP phosphodiesterase inhibitor was added to a final concentration of 10 μM to all incubations to prevent the enzymatic degradation of cellular cAMP. Isoproterenol (ISO) at 10^−5M, with or without bFGF (basic fibroblast growth factor) (20 ng/ml), or three doses of ISO (10^−5, 10^−7, 10^−9M) with 10^−6M angiotensin II (Ang II) were added to the treatment groups. Cells were incubated under an atmosphere of 95% air and 5% CO2 at 37° C. for 10 minutes. Following the incubation period, 1.0 ml/plate aliquot samples were transferred to 12×75 mm polypropylene tubes, and immediately placed in a 0° C. ice bath. The cell monolayers and 1.0 ml aliquots were stored at −20° C. for protein determination and cAMP analysis respectively. Total cellular protein was determined using the BCA (bicinchoninic acid) protein assay (Pierce, Rockford, Ill.) according to the manufacturers specification. The extracellular cAMP per plate was quantified using Diagnostic Corporation (Los Angeles, Calif.) kits according to the manufacturer's specifications; this procedure is patterned after a procedure described by Tovey et al. The procedure entails a competition of ^3H cAMP for cAMP binding protein, separation of free (unbound) cAMP by adsorption onto dextrancoated charcoal, followed by counting of bound ^3H by liquid scintillation (Izevbigie, Pediatr. Res., 2000).

MDCKE11 cells = experiment: cAMP production in renal tubular epithelial cells (MDCK); assay type: cell-based, canine; settings: P<0.001 when compared to all other groups
Experimental: The culture medium was aspirated from RTEc monolayers, and the cells were washed three times with PBS. Madin-Darby canine kidney cell (MDCKc) monolayers were then overlaid with 5 mls PBS at room temperature on 100 mm culture dishes. cAMP phosphodiesterase inhibitor was added at a final concentration of 10 μM to all incubations to prevent the enzymatic degradation of cellular cAMP. Isoproterenol (ISO) at 10^−5M, bFGF (basic fibroblast growth factor) (20 ng/ml), or both were added to the treatment groups. Cells were incubated under an atmosphere of 95% air and 5% CO2 at 37° C. for 1, 3, 5, 10, 20, and 40 minute periods. Following the incubation period, 1.0 ml/plate aliquot samples were transferred to 12×75 mm polypropylene tubes, and immediately placed in a 0° C. ice bath. […] Total cellular protein was determined using the BCA (bicinchoninic acid) protein assay (Pierce, Rockford, Ill.) according to the manufacturers specification. The cAMP assays were done as prescribed by the manufacturer of the cAMP quantitation kit (Diagnostic Products Corporation, Los Angeles, Calif.); this procedure is patterned after a procedure described by Tovey et al. The procedure entails a competition of ^3H cAMP for cAMP binding protein, separation of free (unbound) cAMP by adsorption onto dextrancoated charcoal, followed by counting of bound ^3H by liquid scintillation (Izevbigie, Pediatr. Nephrol., 2000).

[1] = system: differentiated C2C12 cells; experiment: cAMP production in differentiated C2C12 myoblasts; assay type: cell-based, mouse; settings: isoproterenol 10, 0.1 or 0.001 μM, 37° C., 10 min
Experimental: Medium was aspirated from differentiated C2C12 cells, and monolayers were washed with PBS. Monolayers were then overlaid with PBS at 37° C. containing the following treatments: isoproterenol (ISO) at 10^−5, 10^−7, and 10^−9 M forskolin (positive control) at 5×10^−5 M, and negative control (no treatments). A cAMP phosphodiesterase inhibitor, imidazolidin, (10^−6 M) was added to all incubations to prevent enzymatic degradation of cAMP. Culture dishes were placed in a humidified incubator under an atmosphere of 95% air and 5% CO2 at 37° C. for 5-10 min. After the incubation, aliquots of incubation medium were quickly removed, chilled, and stored at −20° C. for cAMP determination (within 3 days). Cells were washed and frozen for later protein determination (Bradford, 1976). The cAMP assays were done as prescribed by the manufacturer of the cAMP quantitation kit (Diagnostic Products Corporation, Los Angeles, Calif.); this procedure is patterned after a procedure described by Tovey et al. The procedure entails a competition of ^3H cAMP for cAMP binding protein, separation of free (unbound) cAMP by adsorption onto dextran-coated charcoal, followed by counting of bound ^3H by liquid scintillation. […] Thus, cAMP production was determined as the sum of assayable cAMP in the PBS and within the cells.

Molecule | cAMP accumulation compared with control cells (HFMc) | modulation of isoproterenol-induced cAMP accumulation (HFMc; serum-starved HFMc, Ang II (1 µM) with different concentrations of isoproterenol, significant at 0.1 and 10 μM isoproterenol (p<0.05)) | cAMP production (MDCKE11 cells) | cAMP production [1]
angiotensin II (DRVYIHPF; Angiotensin-2; UniProt P01019 25-32, looked up) [Ang II] | not | decreased | – | –
CC(C)NCC(O)c1ccc(O)c(O)c1 (centres unmarked) [Isoproterenol, isoproterenol] | – | – | induction of cAMP production | dose-dependent cAMP production
basic fibroblast growth factor [bFGF] | modest but significant increase | – | – | –
